How the values were obtained:
γ-secretase = test: Screening for γ-secretase-modulating activity in SKN neuroblastoma cells carrying the APP "swedish mutation" (assay of Citron et al 1997); assay type: cell-based
Experimental: Screening was carried out using SKN neuroblastoma cells carrying the APP-"swedish mutation" (point mutation at 695 of APP) grown in DMEM/NUT-mix F12 (HAM) provided by Gibco (cat no. 31330-38) containing 5% Serum/Fe supplemented with 1% non-essential amino acids, 100 U/ml Pen/Strep. Cells were grown to near confluency. The screening was performed using the assay as described in Citron et al (1997), Nature Medicine. Vol 3: 67-72

cyclooxygenase-1 (Cox-1) = molecular target: T1, cyclooxygenase-1 (Cox-1) (Ovis aries, UniProt P05979); test: Colorimetric Cox inhibitor screening assay (Cayman Chemical, Cat. No. 760111); assay type: biochemical; conditions: at concentrations of up to 300uM
T1 construct: purchased Cayman Chemical Company 760111
T1 sequence (P05979 25-600): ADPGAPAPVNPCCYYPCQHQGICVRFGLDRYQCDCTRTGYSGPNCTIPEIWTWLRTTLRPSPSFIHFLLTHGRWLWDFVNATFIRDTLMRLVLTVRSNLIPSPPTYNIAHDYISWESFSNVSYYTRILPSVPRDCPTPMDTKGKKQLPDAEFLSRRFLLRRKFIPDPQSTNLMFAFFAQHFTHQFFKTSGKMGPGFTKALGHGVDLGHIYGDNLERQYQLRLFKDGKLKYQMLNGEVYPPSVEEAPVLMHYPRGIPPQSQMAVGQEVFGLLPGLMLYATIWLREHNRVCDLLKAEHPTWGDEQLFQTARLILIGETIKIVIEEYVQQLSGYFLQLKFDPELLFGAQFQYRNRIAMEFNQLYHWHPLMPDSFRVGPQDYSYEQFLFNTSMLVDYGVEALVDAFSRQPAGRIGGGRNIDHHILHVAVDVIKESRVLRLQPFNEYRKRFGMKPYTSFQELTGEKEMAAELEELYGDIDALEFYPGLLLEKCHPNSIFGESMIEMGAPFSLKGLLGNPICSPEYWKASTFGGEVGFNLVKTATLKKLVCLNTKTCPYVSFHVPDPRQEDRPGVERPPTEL
Experimental: Inhibition of Cox-1 was determined using the Colorimetric Cox inhibitor screening assay provided by Cayman Chemical Company, Ann Arbor, MI, USA. (Cat. No. 760111) according to manufacturer's instructions. Exemplary studies were carried out using 2-(4'-trifluoromethyl-biphenyl-3-yl)-propionic acid.

Structure (SMILES)	IC50 (γ-secretase) [µM]	effect on the Cox-1 activity (cyclooxygenase-1 (Cox-1))
O=C(O)Cc1cccc(-c2ccc(C(F)(F)F)cc2)c1 [(4'-Trifluoromethyl-biphenyl-3-yl)-acetic acid]	84	
CC(C(=O)O)c1cccc(-c2ccc(Cl)cc2)c1 (stereo not drawn) [2-(4'-Chloro-biphenyl-3-yl)-propionic acid]	41	
C[C@@H](C(=O)O)c1ccc(-c2ccccc2)c(F)c1 [R-Flurbiprofen, reference compound]	247	
CC(C(=O)O)c1cccc(-c2ccc(C(F)(F)F)cc2)c1 (stereo not drawn) [2-(4'-Trifluoromethyl-biphenyl-3-yl)-propionic acid]	24	No significant effect
CC(C(=O)O)c1cccc(-c2ccc(OC(F)(F)F)cc2)c1 (stereo not drawn) [2-(4'-Trifluoromethoxy-biphenyl-3-yl)-propionic acid]	75	

Source: patent EP1604970A1, “2-(Biphenyl-3-yl)-carboxylic acids of gamma-secretase-modulating activity” (CELLZOME AG, priority 2004, dated 2005)
